Data: patent publication US20150094283A1, “COMBINATION” (GlaxoSmithKline LLC, priority 2010, published 2015)

Test system: SKOV3 tumor xenografts (human ovarian carcinoma)
Test: Growth of SKOV3 tumor xenografts in SCID mice (tumor growth inhibition)
Assay type: in vivo
Conditions: PO, compared to vehicle treated mice
Description: Female SCID mice were implanted subcutaneously with 5×10^6 SKOV3 cells (human ovarian carcinoma). When the tumor volume reached 300-400 mm^3, mice were block randomized to different treatment groups (n=8 mice/group). Mice received the AKT inhibitor, Compound C as the free base, at 10 or 30 mg/kg, once daily (SID) for 21 days in 20% PEG-400, 1% DMSO in water. The VEGFR inhibitor, Compound A as the monohydrochloride salt, was administered at 100 mg/kg, twice/day (BID) for 21 days either alone or in combination with the AKT inhibitor. Mice were weighed and tumors measured by calipers twice weekly. Tumor volumes were calculated using the formula: tumor volume=(Length×Width^2)/2. The percentage of tumor growth inhibition was calculated on each day of tumor measurement using the formula: 100×[1−(average growth of the compound-treated tumors/average growth of vehicle-treated control tumors)]. Data is plotted as mean±sem for tumor volume for each group.

SMILES | Tumor Growth Inhibition (Compound A (monohydrochloride salt) 100 mg/kg, BID x21 d, 100 mg/kg) | Tumor Growth Inhibition (Compound C (free base) 10 mg/kg, SID x21 d, 10 mg/kg) | Tumor Growth Inhibition (Compound C (free base) 30 mg/kg, SID x21 d, 30 mg/kg)
Cc1ccc(Nc2nccc(N(C)c3ccc4c(C)n(C)nc4c3)n2)cc1S(N)(=O)=O [Compound A, 5-[[4-[(2,3-dimethyl-2H-indazol-6-yl)methylamino]-2-pyrimidinyl]amino]-2-methylbenzenesulfonamide, reference compound] | 47% | – | –
Cn1ncc(Cl)c1-c1cc(C(=O)N[C@H](CN)Cc2ccc(F)c(F)c2)oc1Cl [Compound C, N-{(1S)-2-amino-1-[(3,4-difluorophenyl)methyl]ethyl}-5-chloro-4-(4-chloro-1-methyl-1H-pyrazol-5-yl)-2-furancarboxamide] | – | 86% | 67%
